{
  "source": "patent US5393869A",
  "about": "“Parathyroid hormone derivatives” (Takeda Chemical Industries, Ltd., priority 1990, dated 1995)",
  "note": "Starred links: 1 amine or outer side, 2 acyl side, 3 side chain; linkers in the order of their positions; H or OH if unused. Non-standard residues stand in square brackets, D forms with d. Residues, ends and D or L forms follow the SMILES beside them. X1 = O=C([C@H](Cc1c(C2SCCS2)[nH]c2ccccc12)N[*:1])[*:2]",
  "data": [
    {"target": "T1, PTH receptor (Mus musculus, UniProt P41593)", "T1 construct": "a mouse cranial bone-derived osteoblast-like cell strain, MC3T3-EI cells, cultivated on a 96-well multiplate; endogenous in cells; host or cells: MC3T3-E1 mouse osteoblast-like cells", "T1 sequence (P41593 27-591)": "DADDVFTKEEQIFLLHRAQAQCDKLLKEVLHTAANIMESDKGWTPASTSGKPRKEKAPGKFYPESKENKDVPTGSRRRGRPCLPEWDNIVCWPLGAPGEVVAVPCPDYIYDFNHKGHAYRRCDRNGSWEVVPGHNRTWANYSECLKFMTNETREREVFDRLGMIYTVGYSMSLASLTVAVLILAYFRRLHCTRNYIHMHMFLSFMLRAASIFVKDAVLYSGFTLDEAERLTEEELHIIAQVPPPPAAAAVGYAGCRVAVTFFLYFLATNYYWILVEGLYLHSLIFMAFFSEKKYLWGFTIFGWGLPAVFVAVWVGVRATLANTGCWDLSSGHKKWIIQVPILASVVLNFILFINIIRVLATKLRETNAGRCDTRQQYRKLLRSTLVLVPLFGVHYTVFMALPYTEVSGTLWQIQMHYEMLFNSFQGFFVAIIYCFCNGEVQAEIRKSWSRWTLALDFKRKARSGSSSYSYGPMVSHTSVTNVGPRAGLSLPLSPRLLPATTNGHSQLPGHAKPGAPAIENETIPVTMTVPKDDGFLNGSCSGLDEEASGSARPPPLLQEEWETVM", "assay": "cAMP production by PTH (1-34) analogues in MC3T3-EI osteoblast-like cells", "format": "cell-based", "settings": "cAMP production, 0.01-100 nM analogue, room temperature 30 minutes, hPTH(1-34) = 1.00", "method": "The biological activity of the peptide analogues was evaluated by a modified version of the method reported by Shigeno et al. in The Journal of Biological Chemistry 263, 18369-18377 (1988). A culture solution (Hank's solution, containing 20 mM N-2-hydroxyethylpiperazine-N'-2-ethanesulfonic acid (HEPES), 0.1% bovine serum albumin and 0.5 mM isobutylmethyl-xanthine) containing 0.01, 0.1, 1, 10 or 100 nM analogue was added in an amount of 100 μto a mouse cranial bone-derived osteoblast-like cell strain, MC3T3-EI cells, cultivated on a 96-well multiplate (Nunclon, Nunc), followed by reaction at room temperature for 30 minutes. After addition of 100 μof 0.2N hydrochloric acid, the mixture was immersed in boiling water for 2.5 minutes, and cyclic adenosine monophosphate (cAMP) produced by a PTH receptor was extracted from the cells. The total cAMP in the culture solution and the cells was assayed using a commercial radioimmunoassay kit (cyclic AMP [^125 I] kit \"Du Pont-Daiichi\", Daiichi Kagaku Yakuhin).", "values": [
      {"smiles": "CC[C@H](C)[C@H](NC(=O)[C@H](CCC(=O)O)NC(=O)[C@H](CO)NC(=O)[C@@H](NC(=O)[C@@H](N)CO)C(C)C)C(=O)N[C@@H](CCC(N)=O)C(=O)N[C@@H](CC(C)C)C(=O)N[C@@H](CCSC)C(=O)N[C@@H](Cc1c[nH]cn1)C(=O)N[C@@H](CC(N)=O)C(=O)N[C@@H](CC(C)C)C(=O)N[C@H](Cc1ccc2ccccc2c1)C(=O)N[C@@H](CCCCN)C(=O)N[C@@H](Cc1c[nH]cn1)C(=O)N[C@@H](CC(C)C)C(=O)N[C@@H](CC(N)=O)C(=O)N[C@@H](CO)C(=O)N[C@@H](CCSC)C(=O)N[C@@H](CCC(=O)O)C(=O)N[C@@H](CCCNC(=N)N)C(=O)N[C@H](C(=O)N[C@@H](CCC(=O)O)C(=O)N[C@@H](Cc1c[nH]c2ccccc12)C(=O)N[C@@H](CC(C)C)C(=O)N[C@@H](CCCNC(=N)N)C(=O)N[C@@H](CCCCN)C(=O)N[C@@H](CCCCN)C(=O)N[C@@H](CC(C)C)C(=O)N[C@@H](CCC(N)=O)C(=O)N[C@@H](CC(=O)O)C(=O)N[C@H](C(=O)N[C@@H](Cc1c[nH]cn1)C(=O)N[C@@H](CC(N)=O)C(=O)N[C@@H](Cc1ccccc1)C(N)=O)C(C)C)C(C)C", "note": "[(3-(2-naphthyl)-D-Ala^12)hPTH(1-34)NH2]", "Biological Activity (Represented by Relative Activity to hPTH(1-34))": 0.9},
      {"smiles": "CC[C@H](C)[C@H](NC(=O)[C@H](CCC(=O)O)NC(=O)[C@H](CO)NC(=O)[C@@H](NC(=O)[C@@H](N)CO)C(C)C)C(=O)N[C@@H](CCC(N)=O)C(=O)N[C@@H](CC(C)C)C(=O)N[C@@H](CCSC)C(=O)N[C@@H](Cc1c[nH]cn1)C(=O)N[C@@H](CC(N)=O)C(=O)N[C@@H](CC(C)C)C(=O)NCC(=O)N[C@@H](CCCCN)C(=O)N[C@@H](Cc1c[nH]cn1)C(=O)N[C@@H](CC(C)C)C(=O)N[C@@H](CC(N)=O)C(=O)N[C@@H](CO)C(=O)N[C@@H](CCSC)C(=O)N[C@@H](CCCNC(=N)N)C(=O)N[C@@H](CCCNC(=N)N)C(=O)N[C@@H](CCCNC(=N)N)C(=O)N[C@@H](CCC(=O)O)C(=O)N[C@@H](Cc1c(C2SCCS2)[nH]c2ccccc12)C(=O)N[C@@H](CC(C)C)C(=O)N[C@@H](CCCNC(=N)N)C(=O)N[C@@H](CCCCN)C(=O)N[C@@H](CCCCN)C(=O)N[C@@H](CC(C)C)C(=O)N[C@@H](CCC(N)=O)C(=O)N[C@@H](CC(=O)O)C(=O)N[C@H](C(=O)N[C@@H](Cc1c[nH]cn1)C(=O)N[C@@H](CC(N)=O)C(=O)N[C@@H](Cc1ccccc1)C(N)=O)C(C)C", "note": "[(Arg^19,21,2-(1,3-dithiolan-2-yl)-Trp^23)hPTH(1-34)NH2] (H-SVSEIQLMHNLGKHLNSMRRRE[X1]LRKKLQDVHNF-NH2)", "Biological Activity (Represented by Relative Activity to hPTH(1-34))": 1.7},
      {"smiles": "CC[C@H](C)[C@H](NC(=O)[C@H](CCC(=O)O)NC(=O)[C@H](CO)NC(=O)[C@@H](NC(=O)[C@@H](N)CO)C(C)C)C(=O)N[C@@H](CCC(N)=O)C(=O)N[C@@H](CC(C)C)C(=O)N[C@@H](CCSC)C(=O)N[C@@H](Cc1c[nH]cn1)C(=O)N[C@@H](CC(N)=O)C(=O)N[C@@H](Cc1ccc2ccccc2c1)C(=O)NCC(=O)N[C@@H](CCCCN)C(=O)N[C@@H](Cc1c[nH]cn1)C(=O)N[C@@H](CC(C)C)C(=O)N[C@@H](CC(N)=O)C(=O)N[C@@H](CO)C(=O)N[C@@H](CCSC)C(=O)N[C@@H](CCC(=O)O)C(=O)N[C@@H](CCCNC(=N)N)C(=O)N[C@H](C(=O)N[C@@H](CCC(=O)O)C(=O)N[C@@H](Cc1c[nH]c2ccccc12)C(=O)N[C@@H](CC(C)C)C(=O)N[C@@H](CCCNC(=N)N)C(=O)N[C@@H](CCCCN)C(=O)N[C@@H](CCCCN)C(=O)N[C@@H](CC(C)C)C(=O)N[C@@H](CCC(N)=O)C(=O)N[C@@H](CC(=O)O)C(=O)N[C@H](C(=O)N[C@@H](Cc1c[nH]cn1)C(=O)N[C@@H](CC(N)=O)C(=O)N[C@@H](Cc1ccccc1)C(N)=O)C(C)C)C(C)C", "note": "[[3-(2-naphthyl)-Ala^11] hPTH (1-34)NH2]", "Biological Activity (Represented by Relative Activity to hPTH(1-34))": 1.7},
      {"smiles": "CC[C@H](C)[C@H](NC(=O)[C@H](CCC(=O)O)NC(=O)[C@H](CO)NC(=O)[C@@H](NC(=O)C(C)(C)N)C(C)C)C(=O)N[C@@H](CCC(N)=O)C(=O)N[C@@H](CC(C)C)C(=O)N[C@@H](CCSC)C(=O)N[C@@H](Cc1c[nH]cn1)C(=O)N[C@@H](CC(N)=O)C(=O)N[C@@H](CC(C)C)C(=O)NCC(=O)N[C@@H](CCCCN)C(=O)N[C@@H](Cc1c[nH]cn1)C(=O)N[C@@H](CC(C)C)C(=O)N[C@@H](CC(N)=O)C(=O)N[C@@H](CO)C(=O)N[C@@H](CCSC)C(=O)N[C@@H](CCC(=O)O)C(=O)N[C@@H](CCCNC(=N)N)C(=O)N[C@H](C(=O)N[C@@H](CCC(=O)O)C(=O)N[C@@H](Cc1c[nH]c2ccccc12)C(=O)N[C@@H](CC(C)C)C(=O)N[C@@H](CCCNC(=N)N)C(=O)N[C@@H](CCCCN)C(=O)N[C@@H](CCCCN)C(=O)N[C@@H](CC(C)C)C(=O)N[C@@H](CCC(N)=O)C(=O)N[C@@H](CC(=O)O)C(=O)N[C@H](C(=O)N[C@@H](Cc1c[nH]cn1)C(=O)N[C@@H](CC(N)=O)C(=O)N[C@@H](Cc1ccccc1)C(=O)O)C(C)C)C(C)C", "note": "[[Aib^1] hPTH (1-34), (Aib^1)hPTH(1-34)]", "Biological Activity (Represented by Relative Activity to hPTH(1-34))": 1.7},
      {"smiles": "CC[C@H](C)[C@H](NC(=O)[C@H](CCC(=O)O)NC(=O)[C@H](CO)NC(=O)[C@@H](NC(=O)[C@@H](N)CO)C(C)C)C(=O)N[C@@H](CCC(N)=O)C(=O)N[C@@H](CC(C)C)C(=O)N[C@@H](CCSC)C(=O)N[C@@H](Cc1c[nH]cn1)C(=O)N[C@@H](CC(N)=O)C(=O)N[C@@H](CC(C)C)C(=O)N[C@H](CC(C)C)C(=O)N[C@@H](CCCCN)C(=O)N[C@@H](Cc1c[nH]cn1)C(=O)N[C@@H](CC(C)C)C(=O)N[C@@H](CC(N)=O)C(=O)N[C@@H](CO)C(=O)N[C@@H](CCSC)C(=O)N[C@@H](CCC(=O)O)C(=O)N[C@@H](CCCNC(=N)N)C(=O)N[C@H](C(=O)N[C@@H](CCC(=O)O)C(=O)N[C@@H](Cc1c[nH]c2ccccc12)C(=O)N[C@@H](CC(C)C)C(=O)N[C@@H](CCCNC(=N)N)C(=O)N[C@@H](CCCCN)C(=O)N[C@@H](CCCCN)C(=O)N[C@@H](CC(C)C)C(=O)N[C@@H](CCC(N)=O)C(=O)N[C@@H](CC(=O)O)C(=O)N[C@H](C(=O)N[C@@H](Cc1c[nH]cn1)C(=O)N[C@@H](CC(N)=O)C(=O)N[C@@H](Cc1ccccc1)C(N)=O)C(C)C)C(C)C", "note": "[[D-Leu^12] hPTH (1-34)NH2, (D-Leu^12)hPTH(1-34)NH2]", "Biological Activity (Represented by Relative Activity to hPTH(1-34))": 0.5},
      {"smiles": "CC[C@H](C)[C@H](NC(=O)[C@H](CCC(=O)O)NC(=O)[C@H](CO)NC(=O)[C@@H](NC(=O)[C@@H](N)CO)C(C)C)C(=O)N[C@@H](CCC(N)=O)C(=O)N[C@@H](CC(C)C)C(=O)N[C@@H](CCSC)C(=O)N[C@@H](Cc1c[nH]cn1)C(=O)N[C@@H](CC(N)=O)C(=O)N[C@@H](CC(C)C)C(=O)N[C@H](CO)C(=O)N[C@@H](CCCCN)C(=O)N[C@@H](Cc1c[nH]cn1)C(=O)N[C@@H](CC(C)C)C(=O)N[C@@H](CC(N)=O)C(=O)N[C@@H](CO)C(=O)N[C@@H](CCSC)C(=O)N[C@@H](CCC(=O)O)C(=O)N[C@@H](CCCNC(=N)N)C(=O)N[C@H](C(=O)N[C@@H](CCC(=O)O)C(=O)N[C@@H](Cc1c[nH]c2ccccc12)C(=O)N[C@@H](CC(C)C)C(=O)N[C@@H](CCCNC(=N)N)C(=O)N[C@@H](CCCCN)C(=O)N[C@@H](CCCCN)C(=O)N[C@@H](CC(C)C)C(=O)N[C@@H](CCC(N)=O)C(=O)N[C@@H](CC(=O)O)C(=O)N[C@H](C(=O)N[C@@H](Cc1c[nH]cn1)C(=O)N[C@@H](CC(N)=O)C(=O)N[C@@H](Cc1ccccc1)C(N)=O)C(C)C)C(C)C", "note": "[[D-Ser^12] hPTH (1-34)NH2, (D-Ser^12)hPTH(1-34)NH2]", "Biological Activity (Represented by Relative Activity to hPTH(1-34))": 0.8},
      {"smiles": "CC[C@H](C)[C@H](NC(=O)[C@H](CCC(=O)O)NC(=O)[C@H](CO)NC(=O)[C@@H](NC(=O)[C@@H](N)CO)C(C)C)C(=O)N[C@@H](CCC(N)=O)C(=O)N[C@@H](CC(C)C)C(=O)N[C@@H](CCSC)C(=O)N[C@@H](Cc1c[nH]cn1)C(=O)N[C@@H](CC(N)=O)C(=O)N[C@@H](CC(C)C)C(=O)NCC(=O)N[C@@H](CCCCN)C(=O)N[C@@H](Cc1c[nH]cn1)C(=O)N[C@@H](CC(C)C)C(=O)N[C@@H](CC(N)=O)C(=O)N[C@@H](CO)C(=O)N[C@@H](CCSC)C(=O)N[C@@H](CCC(=O)O)C(=O)N[C@@H](CCCNC(=N)N)C(=O)N[C@H](C(=O)N[C@@H](CCC(=O)O)C(=O)N[C@@H](Cc1c[nH]c2ccccc12)C(=O)N[C@@H](CC(C)C)C(=O)N[C@@H](CCCNC(=N)N)C(=O)N[C@@H](CCCCN)C(=O)N[C@@H](CCC(N)=O)C(=O)N[C@@H](CC(C)C)C(=O)N[C@@H](CCC(N)=O)C(=O)N[C@@H](CC(=O)O)C(=O)N[C@H](C(=O)N[C@@H](Cc1c[nH]cn1)C(=O)N[C@@H](CC(N)=O)C(=O)N[C@@H](Cc1ccccc1)C(=O)O)C(C)C)C(C)C", "note": "[[Gln^27] hPTH (1-34), (Gln^27)hPTH(1-34)]", "Biological Activity (Represented by Relative Activity to hPTH(1-34))": 2.5}
    ]}
  ]
}
